Patent publication US20220401514A1, “ANTIMICROBIAL, BACTERIOPHAGE-DERIVED POLYPEPTIDES AND THEIR USE AGAINST GRAM-NEGATIVE AND ACID-FAST BACTERIA” (CONTRAFECT CORPORATION, priority 2019, published 2022)
Values after ≈ are worked out from the molar mass of the structure shown. Where two headings read alike, the source gives them in different places.

What was measured:
[1] = tested on: M. kansasii Hauduroy ATCC 12478; assay: 45 hr MIC against M. kansasii (NTM), Mueller Hinton broth; format: cell-based, Mycobacterium kansasii
[2] = tested on: P. aeruginosa (CFS 1292); assay: microbe, parasite or virus in culture; format: cell-based, Pseudomonas aeruginosa; conditions: Pseudomonas aeruginosa
[3] = tested on: P. aeruginosa strain CFS-1292; assay: Checkerboard assay (FICI) with antibiotics, P. aeruginosa; format: cell-based, Pseudomonas aeruginosa; conditions: for FICI: CAA + […] human serum
Outline: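 Antibiotic diluted 2-fold along one plate axis against Chp peptide; bacteria added at 1×10^5 […] in CAA, optionally with human serum or pulmonary surfactant.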

[4] = tested on: eight different strains of five species of Gram-negative bacteria; assay: MBEC in eight strains of five species of Gram-negative bacteria; format: cell-based; conditions: 24 h biofilm in LB, 16 h treatment
Procedure: Determination of Minimal Biofilm Eradicating Concentrations (MBEC). […] The OD600 of extracted crystal violet was determined. The MBEC value of each sample was determined as the minimum drug concentration required to remove >95% of biofilm biomass as assessed by crystal violet quantitation (in comparison to untreated controls).
MBEC values were likewise determined for Chp2, Chp2-M1, and Chp10-M1 in eight different strains of five species of Gram-negative bacteria. […] The films were then washed and stained with crystal violet to visualize the MBEC.

[5] = tested on: Klebsiella pneumoniae strain 1139; assay: Checkerboard assay (FICI) with antibiotics, K. pneumoniae; format: cell-based
Outline: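 Antibiotics in 2-fold dilutions across one axis against Chp peptide dilutions on the other. FICI = MIC in combination/MIC alone for antibiotic plus the same ratio for peptide; minimum FICI used. Synergy at FICI ≤0.5, strongly additive >0.5 to <1, additive 1-<2, antagonistic ≥2.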

[6] = tested on: P. aeruginosa strain CFS 1292; format: cell-based, Pseudomonas aeruginosa; conditions: serial passage
[7] = tested on: carbapenem-resistant P. aeruginosa clinical isolate CFS-1292; assay: MIC by modified CLSI broth microdilution against P. aeruginosa CFS-1292 (CAA, CAA + human serum); format: cell-based, Pseudomonas aeruginosa; conditions: for MIC (μg/mL) against CFS-1292 in 100% CAA (1st run/2nd run): 1st run or single value
[8] = tested on: Mycobacterium tuberculosis strains
Procedure: MIC values for various Chp peptides were determined using the CLSI method for broth microdilution in 96-well microtiter format.
Next, MIC values for various Chp peptides were determined using the CLSI method above for broth microdilution in 96-well microtiter format for two different Mycobacterium tuberculosis strains. The MIC was determined as explained above for the NTM strains.

[9] = tested on: carbapenem-resistant bacterial strains; assay: organism not typed; format: cell-based
Excerpt: Determination of Minimal Inhibitory Concentrations (MIC).

[10] = tested on: P. aeruginosa strain CFS-1292; assay: Time-kill assay in CAA with 2.5% human serum; format: cell-based, Pseudomonas aeruginosa; conditions: for Loss of bacterial viability: CAA with […] human serum, vs untreated controls
Procedure: Time-Kill Assay of Chp Peptide Activity. […] Exponential phase bacteria were then diluted 1:100 into CAA/HuS and peptide was added at a final concentration of either 1 or 10 μg/mL. Control cultures were included with no peptide added (i.e., buffer control).

[11] = checkerboard, in combination with Chp4-M1
[12] = checkerboard, in combination with Chp6-M1
[13] = checkerboard, in combination with Chp10-M1
[14] = checkerboard, in combination with Unp2-M1
[15] = Mycobacterium tuberculosis (Zopf) Lehmann and Neumann ATCC 25177
[16] = Mycobacterium tuberculosis (Zopf) Lehmann and Neumann ATCC 35817
[17] = carbapenem-resistant isolate PA19
[18] = carbapenem-resistant isolate PA20
[19] = carbapenem-resistant isolate PA21
[20] = carbapenem-resistant isolate PA22
[21] = carbapenem-resistant isolate PA23
[22] = carbapenem-resistant isolate PA24
[23] = carbapenem-resistant isolate WLC-452

In the case of `NC[C@H]1O[C@H](O[C@H]2[C@H](O)[C@@H](O[C@H]3O[C@H](CO)[C@@H](O)[C@H](N)[C@H]3O)[C@H](N)C[C@@H]2N)[C@H](N)C[C@@H]1O` [tobramycin, reference compound], the MIC ([1]; Mycobacterium kansasii, ATCC12478, 45 h, read-out: 45 hr MIC) is reported as 16 µg/mL (≈ 34.2 µM), the MIC ([2]; read-out: MIC Center) is reported as 0.5 µg/mL (≈ 1.07 µM) and the MIC ([2]; read-out: MIC Periphery) is reported as 0.5 µg/mL (≈ 1.07 µM). For the same compound, the “Antibiotic FIC” value ([3]; combined with Chp2-M1, P. aeruginosa CFS-1292) was 0.25, the “Antibiotic FIC” value ([3]; combined with Chp2, P. aeruginosa CFS-1292) was 0.25 and the “Antibiotic FIC” value ([3]; combined with Chp4-M1, P. aeruginosa CFS-1292) was 0.25. The “Antibiotic FIC” value ([3]; combined with Chp6-M1, P. aeruginosa CFS-1292) was 0.25, the “Antibiotic FIC” value ([3]; combined with Chp10-M1, P. aeruginosa CFS-1292) was 0.25 and the “Antibiotic FIC” value ([3]; combined with Unp2-M1, P. aeruginosa CFS-1292) was 0.25. For the same compound, the MBEC ([4]; A. baumanni (ATCC BAA-747)) was 0.03 µg/mL, the MBEC ([4]; E. cloacae (CCUG 63317)) was less than 0.03 µg/mL and the MBEC ([4]; E. coli (ATCC 25922)) was less than 0.03 µg/mL. The MBEC ([4]; E. coli (ATCC 35329)) was less than 0.03 µg/mL, the MBEC ([4]; E. coli (EC2)) was less than 0.03 µg/mL and the MBEC ([4]; K. pneumoniae (ATCC 700603)) was 1 µg/mL. The MBEC ([4]; K. pneumoniae (KP1)) was 1 µg/mL, the MBEC ([4]; P. aeruginosa (ATCC 27853)) was 0.03 µg/mL and the “Antibiotic FIC” value [5, 11] was 0.125. The “Antibiotic MIC” value [5, 11] was 0.003906 µg/mL, the “Antibiotic FIC” value [5, 12] was 0.125 and the “Antibiotic MIC” value [5, 12] was 0.003906 µg/mL. The “Antibiotic FIC” value [5, 13] was 0.125, the “Antibiotic MIC” value [5, 13] was 0.003906 µg/mL and the “Antibiotic FIC” value [5, 14] was 0.125. For the same compound, the “Antibiotic MIC” value [5, 14] was 0.003906 µg/mL, the “Antibiotic FIC” value ([5]; combined with Chp2) was 0.25 and the “Antibiotic MIC in checkerboard” value ([5]; combined with Chp2) was 0.007812 µg/mL. For the same compound, the “Antibiotic FIC” value ([5]; combined with Chp2-M1) was 0.25, the “Antibiotic MIC in checkerboard” value ([5]; combined with Chp2-M1) was 0.003906 µg/mL and the “change in MIC after 21 days” value [6] was “significant increases”.
In the case of “MARRRYRLPRRRSRRLFSRTALRMHPRNRLRRIMRGGIRF [Chp6]”, the “MIC (μg/mL) against CFS-1292 in 100% CAA (1st run/2nd run)” value (“MIC (μg/mL) against CFS-1292 in 100% CAA” below) [7] is reported as 0.5 µg/mL, the “45 hr MIC” value [1] is reported as 1 µg/mL and the MIC [8, 15] is reported as 32 µg/mL. For the same compound, the MIC [8, 16] was 4 µg/mL, the MIC [9, 17] was 0.5 µg/mL and the MIC [9, 18] was 1 µg/mL. The MIC [9, 19] was 1 µg/mL, the MIC [9, 20] was 1 µg/mL and the MIC [9, 21] was 1 µg/mL. The MIC [9, 22] was 1 µg/mL and the MIC [9, 23] was 0.25 µg/mL.
In the case of “MVRRRRLRRRISRRIFRRTVARVGRRRRSFRGGIRF [Chp1]”, the “MIC (μg/mL) against CFS-1292 in 100% CAA” value [7] is reported as 1 µg/mL, the “MIC (μg/mL) against CFS-1292 in CAA + […] human serum” value [7] is reported as 1 µg/mL and the “45 hr MIC” value [1] is reported as 4 µg/mL. The MIC [8, 15] was 64 µg/mL, the MIC [8, 16] was 32 µg/mL and the MIC [9, 17] was 2 µg/mL. The MIC [9, 18] was 4 µg/mL, the MIC [9, 19] was 4 µg/mL and the MIC [9, 20] was 4 µg/mL. The MIC [9, 21] was 4 µg/mL, the MIC [9, 22] was 4 µg/mL and the MIC [9, 23] was 2 µg/mL.
With “MARRYRLSRRRSRRLFSRTALRMHRRNRLRRIMRGGIRF [Chp4]” the “MIC (μg/mL) against CFS-1292 in 100% CAA” value [7] was 0.5 µg/mL, the “MIC (μg/mL) against CFS-1292 in CAA + […] human serum” value [7] was 0.5 µg/mL and the “45 hr MIC” value [1] was greater than 0.125 µg/mL. The “Loss of bacterial viability” value ([10]; 1 μg/mL, 1 hour) was greater than 3.5 log10 CFU/mL, the “Loss of bacterial viability” value ([10]; 1 μg/mL, 3 hours) was greater than 4 log10 CFU/mL and the “Loss of bacterial viability” value ([10]; 1 μg/mL, 24 hours) was greater than 4.8 log10 CFU/mL. For the same compound, the “Loss of bacterial viability” value ([10]; 10 μg/mL, 1 hour) was greater than 3.5 log10 CFU/mL, the “Loss of bacterial viability” value ([10]; 10 μg/mL, 3 hours) was greater than 4 log10 CFU/mL and the “Loss of bacterial viability” value ([10]; 10 μg/mL, 24 hours) was greater than 4.8 log10 CFU/mL. The “bacterial viability after treatment (time-kill)” value ([10]; 1, 3 and 24 hours, 1 μg/mL and 10 μg/mL, CAA + […] human serum) was “multi-log fold decreases”, the MIC [8, 15] was 16 µg/mL and the MIC [8, 16] was 8 µg/mL. For the same compound, the “interaction between the Chp peptide and the antibiotic (FICI values)” value ([3]; P. aeruginosa CFS-1292, range of antibiotics) was “either synergy (i.e., ≤0.5) or strongly additive (i.e., >0.5-1)”, the FICI ([3]; combination with Amikacin) was 0.500 and the FICI ([3]; combination with Azithromycin) was 0.156. For the same compound, the FICI ([3]; combination with Aztreonam) was 0.375, the FICI ([3]; combination with Ciprofloxacin) was 0.375 and the FICI ([3]; combination with Colistin) was 0.375. The FICI ([3]; combination with Fosfomycin) was 0.250, the FICI ([3]; combination with Gentamicin) was 0.250 and the FICI ([3]; combination with Imipenem) was 0.375. For the same compound, the FICI ([3]; combination with Piperacillin) was 0.188, the FICI ([3]; combination with Rifampicin) was 0.750 and the FICI ([3]; combination with Tobramycin) was 0.266. The MIC [9, 17] was 0.5 µg/mL, the MIC [9, 18] was 1 µg/mL and the MIC [9, 19] was 1 µg/mL. It also gave an MIC [9, 20] of 1 µg/mL, an MIC [9, 21] of 1 µg/mL and an MIC [9, 22] of 1 µg/mL. For the same compound, the MIC [9, 23] was 0.5 µg/mL.
